A short description of the data set: Effect of additives on stability, pH 3.5, 60° C. Type of data set: physicochemical. As to conditions: 10 mM Sodium Acetate. The method, then: The drug is monitored at a detection wavelength of 232 nm.
The pH value of the solutions was readjusted to pH 3.5, as required.
All samples were placed in 10 ml glass serum vials, stoppered with rubber closures with an inert coating (Daikyo Flurotec by WEST Pharmaceutical), and sealed with flip-top caps after sampling. Vials were placed at 60° C. after the weights were recorded.
Sampling occurred at the initial time point and on days 2, 7, and 14.
Vials were weighed, sampled, sealed, re-weighed, and replaced under the selected storage condition until testing at the subsequent time point.

Structures can show the parent of a compound that is named as a salt.

Turning to `Cc1ccc(N(CC2=NCCN2)c2cccc(O)c2)cc1` [Phentolamine Mesylate, phentolamine mesylate], the “Rate Constant (zero-order)” value was 0.438 µg/mL/day (EDTA, 0.7 mg/ml); 0.726 µg/mL/day (Glycerol, 25% w/v); 1.663 µg/mL/day (NaCl, 50 mg/ml); -0.026 µg/mL/day (Niacinamide, 50 mg/ml); 1.027 µg/mL/day (No additive); 1.019 µg/mL/day (Propylene glycol, 25% w/v). In addition, the “Rate Constant (zero-order)” value reads like this: (Sodium metabisulfite, 0.5 mg/ml) 1.903 µg/mL/day; (d-Mannitol, 40 mg/ml) 0.416 µg/mL/day; (α-Cyclodextran, 50 mg/ml) 0.501 µg/mL/day. Besides, the “Phentolamine Concentration” value is, setting by setting: (EDTA, 0.7 mg/ml, Day 0) 106 µg/mL; (EDTA, 0.7 mg/ml, Day 2) 103 µg/mL.

Source of the values: patent US20030236306A1, “Stabilized formulations of alpha adrenergic receptor antagonists and the uses thereof” (priority 2002, published 2003).
